Where no end group is shown, it is not given here. The star is where a group is joined. Biotin = O=C1N[C@H]2[C@H](CS[C@H]2CCCCC(=O)*)N1

This note sets out measurements from publication PMC3335016, “Analysis of the Nse3/MAGE-Binding Domain of the Nse4/EID Family Proteins” (PLoS ONE, 2012).

For one experiment, the system named is MAGEC2(129-339) protein. Kind of experiment: PEPSCAN ELISA of EID2 mutant peptides. The note with it: His-S-MAGEC2(129-339) 200-400 nM, 450 nm; for binding affinity to MAGEC2 relative to wild-type peptide: biotinylated peptide 400 nM on streptavidin-coated plates, 4°C overnight, anti-His/peroxidase, TMB, mean of 3 independent measurements, background = His-hTRF2 control; for binding affinity to MAGEC2 compared with wild-type peptide (in words): biotinylated peptide 400 nM, 3 independent measurements. In kind it is binding, human. As to the method: A peptide library of the alanine mutant peptides (Table 1) of the aa 197-217 region of the human EID2 protein was obtained from Mimotopes (Australia). The library was linked to biotin via an additional peptide spacer of serine–glycine–serine–glycine. Each well on ELISA 96-well plates was coated with 100 µl of 5 µg/ml streptavidin (Sigma), incubated overnight at 37°C and then blocked with 3% bovine serum albumin (BSA) in PBS for 2 h at room temperature. The biotinylated peptides (400 nM, in PBS with 0.1% BSA) were applied into wells to saturate their surface and incubated at room temperature for 1 h. The plates were washed three times with 0.1% Tween 20 in PBS and then His-S-MAGEC2(129-339) protein was added (200–400 nM). Plates were incubated at 4°C overnight before washing (as above) to remove unbound protein. First anti-His antibody (Sigma; diluted 1/1000 in PBS with 1% BSA) was incubated for 2 h, washed three times and secondary peroxidase-conjugated rabbit-antiserum against mouse immunoglobulins (DAKO; diluted 1/1000 in PBS with 1% BSA) was added for 1 h (at 4°C). Peroxidase enzyme activity was measured with tetramethylbenzidine and the results were monitored using an automatic ELISA plate reader at a wavelength 450 nm.
Background: An ELISA detects its analyte on a solid surface through an enzyme-linked reagent.

The test system of a further experiment is necdin (aa 1-321). Description: Pull-down of biotin-tagged EID2 peptides on streptavidin-agarose beads. The class given is binding, human. As to conditions: in vitro translated necdin, 2 h at 4°C in PBS, SDS-PAGE, phosphorimaging. As for the experimental part:
Biotin-tagged EID2 peptides were preincubated overnight with streptavidin-agarose beads (Thermo Scientfic) at 4°C. The beads were washed 2 times with 0.1% Tween 20 in PBS buffer, then in vitro-expressed proteins in a total volume of 200 µl PBS buffer were added and incubated for 2 h at 4°C. The beads were washed 4 times with 0.1% Tween 20 in PBS buffer and the bound proteins were eluted in SDS sample buffer and boiled. Input, unbound, and bound fractions of the in vitro expressed proteins were separated by SDS-PAGE and analyzed by phosphorimaging (FLA-7000, Fujifilm). The bound fractions were analyzed by dot blotting to ensure equal EID2 peptide levels were used in pull down assays (data not shown).

The next experiment deals with T1, His-S-MAGEC2(129-339) (human, UniProt Q9UBF1 129-339).
T1 construct: source: E. coli C41, purified (His-TRAP column, FPLC)
T1 sequence (looked up): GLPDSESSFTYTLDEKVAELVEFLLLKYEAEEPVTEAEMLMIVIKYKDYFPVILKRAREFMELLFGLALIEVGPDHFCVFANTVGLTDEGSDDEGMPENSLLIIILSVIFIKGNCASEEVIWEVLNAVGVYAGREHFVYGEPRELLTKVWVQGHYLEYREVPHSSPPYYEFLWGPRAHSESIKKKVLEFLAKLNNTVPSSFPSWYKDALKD
Description: ELISA; PEPSCAN ELISA; biotinylated EID2 peptides (400 nM) on streptavidin-coated plates; His-S-MAGEC2(129-339) 200–400 nM, 4°C overnight; anti-His detection. The note with it: both partners purified.

Take “ARNPHRVDLDILTFTIALTAS [peptide #1, EID2 alanine mutant peptide Q197A]”: in the experiment on MAGEC2(129-339) protein, the “binding affinity to MAGEC2 relative to wild-type peptide” value is ~30 % of WT affinity and the “binding affinity to MAGEC2 compared with wild-type peptide (in words)” value is on record as “significantly reduced”. In addition, the “binding of necdin to peptide (pull-down, in words)” value (“binding of necdin to peptide” below) with necdin (aa 1-321) is listed as “comparable to the wild-type peptide”.

For “QANPHRVDLDILTFTIALTAS [peptide #2, EID2 alanine mutant peptide R198A]”, in the experiment on MAGEC2(129-339) protein, the “binding affinity to MAGEC2 relative to wild-type peptide” value is recorded as < 20 % of WT affinity and the “binding affinity to MAGEC2 compared with wild-type peptide (in words)” value is reported as “significantly reduced”. Besides, in the experiment on necdin (aa 1-321), the “binding of necdin to peptide” value is reported as “comparable to the wild-type peptide”.

Consider “QRNPHAVDLDILTFTIALTAS [peptide #6, EID2 alanine mutant peptide R202A]”, for which, in the experiment with MAGEC2(129-339) protein, the “binding affinity to MAGEC2 relative to wild-type peptide” value is < 20 % of WT affinity.

“QRNPHRVALDILTFTIALTAS [peptide #8, EID2 alanine mutant peptide D204A]”: the “binding affinity to MAGEC2 compared with wild-type peptide (in words)” value in the experiment on MAGEC2(129-339) protein is recorded as “comparable to that of the wild-type peptide”.

With “QRNPHRVDADILTFTIALTAS [peptide #9, EID2 alanine mutant peptide L205A]”, in the experiment on MAGEC2(129-339) protein, the “binding affinity to MAGEC2 relative to wild-type peptide” value is ~30 % of WT affinity.

As for “QRNPHRVDLAILTFTIALTAS [peptide #10, EID2 alanine mutant peptide D206A]”, the “binding affinity to MAGEC2 relative to wild-type peptide” value in the experiment with MAGEC2(129-339) protein is given as ~30 % of WT affinity.

Consider “QRNPHRVDLDALTFTIALTAS [peptide #11, EID2 alanine mutant peptide I207A]”, for which the “binding affinity to MAGEC2 relative to wild-type peptide” value in the experiment with MAGEC2(129-339) protein is ~30 % of WT affinity.

Turning to “QRNPHRVDLDIATFTIALTAS [peptide #12, EID2 alanine mutant peptide L208A]”, the “binding affinity to MAGEC2 relative to wild-type peptide” value in the experiment with MAGEC2(129-339) protein was ~30 % of WT affinity.

With “QRNPHRVDLDILTATIALTAS [peptide #14, EID2 alanine mutant peptide F210A]”, the “binding affinity to MAGEC2 relative to wild-type peptide” value in the experiment on MAGEC2(129-339) protein is given as < 20 % of WT affinity. In addition, the “binding of necdin to peptide” value in the experiment with necdin (aa 1-321) was “significantly reduced”.

Regarding “QRNPHRVDLDILTFTAALTAS [peptide #16, EID2 alanine mutant peptide I212A]”, the “binding affinity to MAGEC2 relative to wild-type peptide” value in the experiment with MAGEC2(129-339) protein was < 20 % of WT affinity. Moreover, the “binding of necdin to peptide” value with necdin (aa 1-321) is “significantly reduced”.

As to “QRNPHRVDLDILTFTIAATAS [peptide #17, EID2 alanine mutant peptide L214A]”, the “binding affinity to MAGEC2 relative to wild-type peptide” value in the experiment with MAGEC2(129-339) protein is given as < 20 % of WT affinity.

As to “QRNPHRVDLDILTFTIALAAS [peptide #18, EID2 alanine mutant peptide T215A]”, the “binding affinity to MAGEC2 relative to wild-type peptide” value in the experiment with MAGEC2(129-339) protein is on record as ~30 % of WT affinity.

On to “QRNPHRVDLDILTFTIALTAA [peptide #19, EID2 alanine mutant peptide S217A]”, for which the “binding affinity to MAGEC2 relative to wild-type peptide” value with MAGEC2(129-339) protein is recorded as ~30 % of WT affinity.

B1: EID2 peptide #4 (peptide)
peptide: Biotin-SGSGQRNAHRVDLDILTFTIALTAS
notes: source: synthetic peptide (Mimotopes)
On to B1, for which the binding result with His-S-MAGEC2(129-339) is “binds”.

B2: EID2 peptide #5 (peptide)
peptide: Biotin-SGSGQRNPARVDLDILTFTIALTAS
notes: as for B1
Turning to B2, in the experiment with His-S-MAGEC2(129-339), the binding result was “binds”.

B3: EID2 WT peptide (aa 197-217) (peptide)
peptide: Biotin-SGSGQRNPHRVDLDILTFTIALTAS
notes: also called wild-type peptide; long EID2 peptide; source: synthetic peptide (Mimotopes); not shown: biotin-SGSG spacer, N-terminal, kept
In the case of B3, in the experiment with His-S-MAGEC2(129-339), the binding result is “binds”.

B4: EID2 peptide #7 (peptide)
peptide: Biotin-SGSGQRNPHRADLDILTFTIALTAS
notes: as for B1
B4: in the experiment with His-S-MAGEC2(129-339), the binding result is recorded as “binds”.

B5: EID2 peptide #15 (peptide)
peptide: Biotin-SGSGQRNPHRVDLDILTFAIALTAS
notes: as for B1
As to B5, in the experiment with His-S-MAGEC2(129-339), the binding result is recorded as “binds”.

B6: EID2 peptide #3 (peptide)
peptide: Biotin-SGSGQRAPHRVDLDILTFTIALTAS
notes: as for B1
For B6, in the experiment with His-S-MAGEC2(129-339), the binding result is on record as “binds”.

B7: EID2 peptide #13 (peptide)
peptide: Biotin-SGSGQRNPHRVDLDILAFTIALTAS
notes: as for B1
On to B7, for which, in the experiment with His-S-MAGEC2(129-339), the binding result is given as “binds”.

B8: EID2 peptide #8 (D204A) (peptide)
peptide: Biotin-SGSGQRNPHRVALDILTFTIALTAS
notes: as for B1
As for B8, in the experiment with His-S-MAGEC2(129-339), the binding result is listed as “binds”.
